Results from publication PMC7979765, “trans-Translation inhibitors bind to a novel site on the ribosome and clear Neisseria gonorrhoeae in vivo” (Nature Communications, 2021).
“And” between values parts separate entries of the source, which are not always exact repeats. Equal entries are not always repeated. Where two headings read alike, the source gives them in different places.

Experiment: Pharmacokinetic analyses in mice (PO suspension, IV, SC)
Format: in vivo, mouse
Procedure: Female CD-1 mice as above were fasted for 2 h prior, and 4 h after dosing. […] […], 3 mice from each group were euthanized by CO2 inhalation, blood was collected by cardiac puncture into K2EDTA collection tubes, and protein was precipitated and analysed by LC/MS-MS for plasma concentrations of MBX-4132. Data were analysed using WinNonLin.
[…] At 0.083, 0.5, 1, 4, 8 and 24 h post dose, blood was collected from 3 mice/group by tail vein or facial bleed into K2EDTA collection tubes, and protein was precipitated and analysed by LC/MS-MS for plasma concentrations of MBX-4132. Sampling was performed serially, with each mouse contributing sample at all time points. Data were analysed using WinNonLin.

O=C(Nc1nnc(-c2ccc(F)cc2)o1)N1CCc2ccccc2C1 [MBX 4132]
MBX 4132 Concentrations in Mouse Plasma (IV (10 mg/kg), 0.083 hrs, individual animals, 10 mg/kg): 58700 ng/mL and 65700 ng/mL | MBX 4132 Concentrations in Mouse Plasma (IV (10 mg/kg), 0.5 hrs, individual animals, 10 mg/kg): 36200 ng/mL and 32000 ng/mL | MBX 4132 Concentrations in Mouse Plasma (IV (10 mg/kg), 1 hrs, individual animals, 10 mg/kg): 22900 ng/mL and 20200 ng/mL | MBX 4132 Concentrations in Mouse Plasma (IV (10 mg/kg), 4 hrs, individual animals, 10 mg/kg): 8580 ng/mL and 6390 ng/mL | MBX 4132 Concentrations in Mouse Plasma (IV (10 mg/kg), 8 hrs, individual animals, 10 mg/kg): 3980 ng/mL and 3290 ng/mL | MBX 4132 Concentrations in Mouse Plasma (IV (10 mg/kg), 24 hrs, individual animals, 10 mg/kg): 293 ng/mL and 149 ng/mL and 67.4 ng/mL | MBX 4132 Concentrations in Mouse Plasma (PO (10 mg/kg susp.), 0.25 hrs, individual animals, 10 mg/kg): 15389 ng/mL and 9102 ng/mL | MBX 4132 Concentrations in Mouse Plasma (PO (10 mg/kg susp.), 0.5 hrs, individual animals, 10 mg/kg): 16019 ng/mL and 12183 ng/mL | MBX 4132 Concentrations in Mouse Plasma (PO (10 mg/kg susp.), 1 hrs, individual animals, 10 mg/kg): 16437 ng/mL and 15902 ng/mL | MBX 4132 Concentrations in Mouse Plasma (PO (10 mg/kg susp.), 2 hrs, individual animals, 10 mg/kg): 10997 ng/mL and 18067 ng/mL | MBX 4132 Concentrations in Mouse Plasma (PO (10 mg/kg susp.), 4 hrs, individual animals, 10 mg/kg): 13379 ng/mL and 14121 ng/mL | MBX 4132 Concentrations in Mouse Plasma (PO (10 mg/kg susp.), 8 hrs, individual animals, 10 mg/kg): 11230 ng/mL and 9243 ng/mL | MBX 4132 Concentrations in Mouse Plasma (PO (10 mg/kg susp.), 24 hrs, individual animals): <62.5 ng/mL | MBX 4132 Concentrations in Mouse Plasma (PO (10 mg/kg), 0.083 hrs, individual animals, 10 mg/kg): 809 ng/mL and 1080 ng/mL and 1900 ng/mL | MBX 4132 Concentrations in Mouse Plasma (PO (10 mg/kg), 0.5 hrs, individual animals, 10 mg/kg): 881 ng/mL and 1440 ng/mL and 1770 ng/mL | MBX 4132 Concentrations in Mouse Plasma (PO (10 mg/kg), 1 hrs, individual animals, 10 mg/kg): 1490 ng/mL and 1730 ng/mL | MBX 4132 Concentrations in Mouse Plasma (PO (10 mg/kg), 4 hrs, individual animals, 10 mg/kg): 1960 ng/mL and 2880 ng/mL | MBX 4132 Concentrations in Mouse Plasma (PO (10 mg/kg), 8 hrs, individual animals, 10 mg/kg): 4940 ng/mL and 6040 ng/mL | MBX 4132 Concentrations in Mouse Plasma (PO (10 mg/kg), 24 hrs, individual animals, 10 mg/kg): 66.5 ng/mL and 26.0 ng/mL and 81.5 ng/mL | MBX 4132 Concentrations in Mouse Plasma (SC (10 mg/kg), 0.083 hrs, individual animals, 10 mg/kg): 738 ng/mL and 530 ng/mL and 1090 ng/mL | MBX 4132 Concentrations in Mouse Plasma (SC (10 mg/kg), 0.5 hrs, individual animals, 10 mg/kg): 3760 ng/mL and 4140 ng/mL | MBX 4132 Concentrations in Mouse Plasma (SC (10 mg/kg), 1 hrs, individual animals, 10 mg/kg): 3190 ng/mL and 3390 ng/mL | MBX 4132 Concentrations in Mouse Plasma (SC (10 mg/kg), 4 hrs, individual animals, 10 mg/kg): 2890 ng/mL and 2390 ng/mL | MBX 4132 Concentrations in Mouse Plasma (SC (10 mg/kg), 8 hrs, individual animals, 10 mg/kg): 2800 ng/mL and 2480 ng/mL | MBX 4132 Concentrations in Mouse Plasma (SC (10 mg/kg), 24 hrs, individual animals, 10 mg/kg): 599 ng/mL and 627 ng/mL | MBX 4132 Concentrations in Mouse Plasma (SC (25 mg/kg), 0.083 hrs, individual animals, 25 mg/kg): 1190 ng/mL and 2170 ng/mL | MBX 4132 Concentrations in Mouse Plasma (SC (25 mg/kg), 0.5 hrs, individual animals, 25 mg/kg): 3170 ng/mL and 5250 ng/mL and 6610 ng/mL | MBX 4132 Concentrations in Mouse Plasma (SC (25 mg/kg), 1 hrs, individual animals, 25 mg/kg): 5270 ng/mL and 5450 ng/mL | MBX 4132 Concentrations in Mouse Plasma (SC (25 mg/kg), 4 hrs, individual animals, 25 mg/kg): 3050 ng/mL and 3600 ng/mL | MBX 4132 Concentrations in Mouse Plasma (SC (25 mg/kg), 8 hrs, individual animals, 25 mg/kg): 3850 ng/mL and 4860 ng/mL | MBX 4132 Concentrations in Mouse Plasma (SC (25 mg/kg), 24 hrs, individual animals, 25 mg/kg): 2190 ng/mL and 1680 ng/mL | concentration at 24 h (female, CD-1, mouse, in vivo, iv, 10 mg/kg, IV (10 mg/kg), 24 hrs, mean of 3 animals, read-out: MBX 4132 Concentrations in Mouse Plasma, Mean): 170 ng/mL | concentration at 0.25 h (female, CD-1, mouse, in vivo, po, 10 mg/kg, PO (10 mg/kg susp.), 0.25 hrs, individual animals, read-out: MBX 4132 Concentrations in Mouse Plasma): 14300 ng/mL | concentration at 0.25 h (female, CD-1, mouse, in vivo, po, 10 mg/kg, PO (10 mg/kg susp.), 0.25 hrs, mean of 3 animals, read-out: MBX 4132 Concentrations in Mouse Plasma, Mean): 12900 ng/mL | concentration at 0.5 h (female, CD-1, mouse, in vivo, po, 10 mg/kg, PO (10 mg/kg susp.), 0.5 hrs, individual animals, read-out: MBX 4132 Concentrations in Mouse Plasma): 13900 ng/mL | concentration at 0.5 h (female, CD-1, mouse, in vivo, po, 10 mg/kg, PO (10 mg/kg susp.), 0.5 hrs, mean of 3 animals, read-out: MBX 4132 Concentrations in Mouse Plasma, Mean): 14000 ng/mL | concentration at 1 h (female, CD-1, mouse, in vivo, po, 10 mg/kg, PO (10 mg/kg susp.), 1 hrs, individual animals, read-out: MBX 4132 Concentrations in Mouse Plasma): 12100 ng/mL | concentration at 1 h (female, CD-1, mouse, in vivo, po, 10 mg/kg, PO (10 mg/kg susp.), 1 hrs, mean of 3 animals, read-out: MBX 4132 Concentrations in Mouse Plasma, Mean): 14800 ng/mL | concentration at 2 h (female, CD-1, mouse, in vivo, po, 10 mg/kg, PO (10 mg/kg susp.), 2 hrs, individual animals, read-out: MBX 4132 Concentrations in Mouse Plasma): 15000 ng/mL | concentration at 2 h (female, CD-1, mouse, in vivo, po, 10 mg/kg, PO (10 mg/kg susp.), 2 hrs, mean of 3 animals, read-out: MBX 4132 Concentrations in Mouse Plasma, Mean): 14700 ng/mL | concentration at 4 h (female, CD-1, mouse, in vivo, po, 10 mg/kg, PO (10 mg/kg susp.), 4 hrs, individual animals, read-out: MBX 4132 Concentrations in Mouse Plasma): 13300 ng/mL | concentration at 4 h (female, CD-1, mouse, in vivo, po, 10 mg/kg, PO (10 mg/kg susp.), 4 hrs, mean of 3 animals, read-out: MBX 4132 Concentrations in Mouse Plasma, Mean): 13600 ng/mL | concentration at 8 h (female, CD-1, mouse, in vivo, po, 10 mg/kg, PO (10 mg/kg susp.), 8 hrs, individual animals, read-out: MBX 4132 Concentrations in Mouse Plasma): 9290 ng/mL
